Measured values from patent US20260035339A1, “TETRAHYDRONAPHTHALENE DERIVATIVE” (ATRANSEN PHARMA LTD., priority 2022, published 2026).

Columns and labels:
[1] = system: Mouse colorectal cancer-derived CT26 cells; test: Cell proliferation inhibitory effect using mouse colorectal cancer cells (CCK-8 assay); type: cell-based; conditions: 72 hours compound treatment, read-out: Evaluation of IC50 (proliferation inhibition rate of 50%)
How it was run: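 Cells seeded at 1000 per well in RPMI 1640 with 10% FBS; after 24 h medium replaced with compound at 0.01-30 μM. Viable cells counted by CCK-8 after 72 h of treatment, and IC50 taken as the concentration giving 50% proliferation inhibition relative to untreated control.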

[2] = system: Human breast cancer cells MCF7; test: BNCT-enhancing effect by L-BPA confinement using cultured cells (colony formation after neutron irradiation); type: cell-based; conditions: MCF7 loaded with 100 μM L-[10B]BPA, then 10 μM compound for 60 minutes; neutron rays 5 MW for 4 minutes
Protocol: Human breast cancer cells MCF7 were plate-cultured in an RPMI medium for 48 hours, then replaced with an RPMI medium containing 100 μM of L-[10B]BPA, and cultured for 15 minutes to allow the L-[10B]BPA to be taken up in the cells. After washing with HBSS, the cells were cultured in an RPMI medium for 60 minutes, and after further washing with HBSS, the cells were peeled off and stored in HBSS at room temperature for 1.5 hours ((−) in FIG. 3A). L-BPA was taken up in the cells, washed with HBSS and then cultured in an RPMI medium containing the compound of Example 1-1 (10 μM) obtained in the present invention for 60 minutes, and after further washing with HBSS, the cells were peeled off and stored in HBSS at room temperature for 1.5 hours ((+) in FIG. 3A). The cells were cultured in an RPMI medium containing no L-[10B]BPA for 15 minutes, and after washing with HBSS, the cells were peeled off and stored in HBSS at room temperature for 1.5 hours ((No BPA Hot control) in FIG. 3A). These three cell samples were irradiated with neutron rays (5 MW for 4 minutes). After irradiation, in order to measure viable cells, the cells were plate-cultured and the number of colonies generated after 2 weeks was measured. The number of viable cells was evaluated as surviving fraction (%) (FIG. 3A).

For `NC1(C(=O)O)CCc2ccc(Oc3ccc4ccccc4c3)cc2C1` (centres unmarked) [Example 1-1, 2-carboxy-7-(naphthalene-2-yloxy)-1,2,3,4-tetrahydronaphthalene-2-aminium chloride], the IC50 [1] was ≤ 0.9 µM and the “BNCT-enhancing effect (surviving fraction after neutron irradiation)” value [2] was “large BNCT-enhancing effect”.
